The values below come from patent US11571404B2, “Compositions and methods for the treatment of liver diseases and disorders associated with one or both of hyperammonemia or muscle wasting” (priority 2017, dated 2023).

Test [1] concerns primary human myotubes. Nature of the test: TNF induced myotube atrophy, MYOSCREEN platform (Example 10). In kind it is cell-based. Set-up: Myotube Area mean: unit not given here. The note with it: for Fusion Index mean / Myotube Area mean: TNFalpha 10 ng/mL, N=3. On the procedure:
Methods: Experiment was performed using the […] platform (CYTOO, France). Briefly, […] is a proprietary technology based on micropatterning and defined microenvironments that establish highly mature primary human myotubes with substantial striation and low morphological variability. Primary cells derived from skeletal muscle of healthy human donors are differentiated to form myotubes (multinucleated syncytia) that are highly reminiscent of human muscle tissue. […] is a fully automated platform that interrogates multiple phenotypes relevant for muscle physiology including myotube area, fusion index, and total nuclei. On Day 0 expanded primary myoblasts from a healthy human donor were seeded at 10,000 cells per well for 24 hour at 37 deg C. […] Importantly, treatment groups were prepared in PBS and final concentration in all wells, including controls, was 10% PBS. On Day 2 cells were switched to Cirrhosis Media based on DMEM comprising 0.1% horse serum and 0.5× amino acids at ratios of plasma of cirrhosis (Kakazu et al., 2013) containing atrophy inducer TNFalpha (10 ng/mL) and again treated according to Day 1 and Table 16. On Day 6 cells were fixed with 5% Formalin for 30 minutes at room temperature. Fixed cells were processed for immunostaining with primary antibody against Troponin T to stain myotubes and Hoeschst dye for nuclei. Image acquisition was done at 10× magnification using Operetta High Content Imaging System and analysis was performed using a proprietary and dedicated algorithm on the Acapella High Content Imaging System (Perkin Elmer, CYTOO).

The test system of test [2] is C3A derivative clone of the HepG2 Hepatocellular Carcinoma cell line. The test is described as follows: Hepatic albumin production in cirrhosis media, ELISA normalized to nuclei (Example 9). In kind it is cell-based, human. Conditions: for Albumin/Nuclei (mean): 48 hours. On the procedure: Media composed of amino acids consistent with profiles of cirrhotic individuals was tested for effect on production of albumin. Effects of […], components and comparator compositions on albumin production were determined. Methods: The ability of […] to increase hepatocyte albumin production was assessed using the C3A derivative clone of the HepG2 Hepatocellular Carcinoma cell line (ATCC, CRL-10741). 2.0e4 cells per well were seeded on day 0 in a 96-well microplate (Corning; 3903) in Dulbecco's Modified Eagle Medium (DMEM, Corning) supplemented with 10% fetal bovine serum (Corning) and 0.2% Primocin (InVivoGen, San Diego, Calif.) and incubated for 24 hours at 37° C., 5% CO2. […] Cells were cultured for 48 hours at 37° C., 5% CO2, media was collected, cells were washed 1× in PBS, fixed in 4% paraformaldehyde, washed 2× in PBS, nuclei were stained with Hoechst 33342 according to manufacturer's instructions (Life Technologies, H3570) and then washed 2× in PBS. Media albumin levels were assessed by R&D Systems's DuoSet ELISA Development System for Human Serum Albumin (R&D Systems, DY1455) and nuclei were counted using Molecular Devices Image Express High Content Screening platform and pre-installed nuclei counting analysis pipeline. Albumin levels were normalized to total nuclei in order to derive a per cell albumin production ratio.
On the technique in general: In an ELISA, binding on a coated surface is turned into a signal by an enzyme label.

Where [3] appears, read: dose 5X of concentration in cirrhosis media.
Setting [4] is: dose 10x of concentration in cirrhosis media.
The mark [5] stands for this setting: dose 20X of concentration in cirrhosis media.
The mark [6] stands for this setting: dose 30X of concentration in cirrhosis media.

`CC(C)C[C@H](N)C(=O)O` [L, L-leucine]: the “Effect on Atrophy” value in test [1] (TNF induced myotube atrophy, overall call across doses) is recorded as “no effect”. In addition, the “Fusion Index mean” value in test [1] (setting [3]) was found to be 0.087; in test [1] (setting [4]), 0.094; in test [1] (setting [5]), 0.091; in test [1] (setting [6]) it was 0.092. Further, the “Myotube Area mean” value is 4499.140 in test [1] (setting [3]), 4480.850 in test [1] (setting [4]), 4679.729 in test [1] (setting [5]) and 4579.231 in test [1] (setting [6]). Moreover, the “Albumin/Nuclei (mean)” value in test [2] (Dose 5X of basal media concentrations) is on record as −0.087; in test [2] (Dose 10X of basal media concentrations), −0.116; in test [2] (Dose 20X of basal media concentrations), −0.219; in test [2] (Dose 40X of basal media concentrations), 0.148. For the same compound, the “Effect on Albumin” value in test [2] (over the dose curve 5X-40X) is listed as “No Effect”.
